Source: patent publication US20130030055A1, “COMPOSITIONS AND METHODS FOR TREATING HAIR LOSS, HAIR THINNING, AND HAIR COLOR LOSS” (priority 2010, published 2013)

Experiments:
eyelashes = assay: Randomized vehicle-controlled study: digital image analysis of eyelash length, thickness/fullness, darkness; format: in vivo, human; conditions: week 16; p<0.0001 vs vehicle
Excerpt: The primary efficacy variable was the change in GEA score from the baseline measurement to the month 4 (week 16) measurement. A clinical success was defined as at least a 1-grade increase from baseline. […] The digital image analysis was based on standardized equipment and subject preparation. Digital image analysis is a photographic process developed and performed by Canfield Scientific, Inc. The details regarding these processes are maintained by Canfield Scientific, Inc. and are available upon request. The information describing software and technical processes of digital image analysis is maintained in standard operating procedures (SOPs) and work instruction manuals on file at Canfield Scientific, Inc. Upper eyelash length was measured within a defined eyelash boundary for each eye, known as the full area of interest (AOI). For the digital image, the computer software divided the full AOI image into a series of 25 vertical pixel segments. Within each segment, the maximum upper eyelash length (defined as the maximum height of each segment) was measured in pixels. The mean number of pixels over all segments represented the upper eyelash length and was computed for each digital image across both eyes. Upper eyelash length was additionally measured in terms of millimeters (mm). […] Upper eyelash thickness/fullness was measured within 3 preset rectangular areas (proximal, medial, and distal, each 300×25 pixels) positioned at fixed distances from a standardized point on the eyelash margin. […] Eyelash thickness/fullness was assessed across both eyes as an average of the 3 rectangular areas (i.e., average progressive eyelash thickness), individually for the 3 areas (proximal, medial, and distal), within the full AOI, and within the spline (a narrow area approximately 5 pixels wide, bisecting the AOI). Upper eyelash thickness/fullness was additionally measured in terms of mm2. […] Upper eyelash darkness was determined by lash intensity of the upper eyelash area within the spline. […] Eyelash intensity was calculated within the full AOI and within the spline. […]

[1] = Open-label study: adverse events, periorbital darkening, biomicroscopy; format: in vivo, human
Excerpt: Subjects were instructed to apply bimatoprost 0.03% to the eyelid lash line once daily for 12 weeks using an applicator (Studio Basics Professional Tools Eye Applicators, Paris Presents Incorporated, Gumee, Ill.) for each upper eyelid each evening and, if necessary, to wipe the areas immediately around the eyelid afterward to remove excess medication. Periodic use of artificial tears was allowed, but only prior to administration of bimatoprost 0.03%.
Clinical Examinations. Assessments were conducted at baseline and at weekly study visits at weeks 1, 4, 8, 12 (end of treatment period), and 16 (post-treatment follow-up period). At each visit, subjects underwent a complete eye examination by an ophthalmologist that included intraocular pressure measurements, visual acuity, and biomicroscopy. Subjects were queried at each visit for adverse events and these were recorded by the investigator. The presence of periorbital darkening was noted and graded on a scale of 0 to 4, and adverse event data were collected at each visit during the treatment period.
Health Outcomes Questionnaires. A questionnaire was used to track adverse events and to assess the subjects' satisfaction with treatment and their subjective evaluation of their eyelashes' appearance. Subjects were asked to answer all questions and return the questionnaire at weeks 4, 8, and 12. Subjects were also asked to respond verbally to 2 additional questions and their responses were recorded by site staff (FIGS. 1-4).

CCNC(=O)CCC/C=C\C[C@@H]1[C@@H](/C=C/[C@@H](O)CCc2ccccc2)[C@H](O)C[C@@H]1O [bimatoprost]
Mean change from baseline in eyelash darkness, as darker eyelashes (eyelashes): 18% | Mean change from baseline in eyelash length, as increase in length (eyelashes): 25% | Mean change from baseline in eyelash thickness/fullness, as increase (eyelashes): 106% | Subjects Reported (n): Eye redness ([1]; Week 1 (n = 24)): 2 | Subjects Reported (n): Periorbital pigmentation changes ([1]; Week 1 (n = 24)): 0 | Subjects Reported (n): Possible brown eye shadow effect ([1]; Week 1 (n = 24)): 1 | Subjects Reported (n): Burning ([1]; Week 4 (n = 27)): 1 | Subjects Reported (n): Dryness and tightness ([1]; Week 4 (n = 27)): 1 | Subjects Reported (n): Eye redness ([1]; Week 4 (n = 27)): 4 | Subjects Reported (n): Mild itchiness ([1]; Week 4 (n = 27)): 3 | Subjects Reported (n): Periorbital pigmentation changes ([1]; Week 4 (n = 27)): 3 | Subjects Reported (n): Periorbital redness ([1]; Week 4 (n = 27)): 1 | Subjects Reported (n): Burning ([1]; Week 8 (n = 20)): 2 | Subjects Reported (n): Mild itchiness ([1]; Week 8 (n = 20)): 2 | Subjects Reported (n): Periorbital pigmentation changes ([1]; Week 8 (n = 20)): 1 | Subjects Reported (n): Redness and dryness ([1]; Week 8 (n = 20)): 1 | Subjects Reported (n): Dryness and darkening ([1]; Week 12 (n = 23)): 1 | Subjects Reported (n): Eye redness ([1]; Week 12 (n = 23)): 1 | Subjects Reported (n): Eyelid redness ([1]; Week 12 (n = 23)): 1 | Subjects Reported (n): Itching ([1]; Week 12 (n = 23)): 1 | Subjects Reported (n): Periorbital pigmentation changes ([1]; Week 12 (n = 23)): 3 | Subjects Reported (n): Red and sore ([1]; Week 12 (n = 23)): 1 | Hyperemia on biomicroscopy examination ([1]; any subject at any visit): not observed | Subjects with periorbital darkening ([1]; during the course of the study, 28 subjects): 18% | Subjects whose pigmentation changes were noted as possible, slight or a little ([1]; of 28 subjects): 11% | Serious or unexpected adverse events ([1]; whole study): no serious or unexpected adverse events
